Entries after “also recorded” stand apart in the source; their conditions may differ.
Columns and labels:
human CD14+ monocytes = assay: Cytokine production in LPS-stimulated human monocytes (ELISA); type: cell-based; conditions: DI 12 h, LPS 24 h
Procedure: Cytokines in cell supernatants were analyzed using DuoSet® ELISA kits according to manufacturer protocol (R&D Systems). The supernatants from BMDMs were diluted 1:4, from human blood monocytes 1:3.
Blood from healthy donors was acquired from LRS chambers supplied by the Mississippi Valley Regional Blood Center. Peripheral blood mononuclear cells (PBMCs) from buffy coats were recovered from the Ficoll interface after a 400 g centrifugation for 30 min. Monocytes were isolated by adherence on a cell culture dish for 1 h at 37° C. and 5% C02 in RPMI containing 1% Human Serum Albumin (Albutein, Grifols, Spain). After extensive washes to allow removal of non-adherent cells, monocytes (>95% purity) were harvested, counted and 5×10^5 cells were plated per well in 24-well plates. The cells were treated with DI (125 μM if not stated otherwise) for 12 h and stimulated with LPS (100 ng/mL) for 1 h or as indicated. In some experiments cells were treated with DI in presence of EtGSH (1 mM, Santa Cruz).

IκBζ = assay: LPS-induced Ikb-ζ protein induction in BMDMs (western blot); type: cell-based, mouse
Procedure: (§1) BMDM were prepared from 6- to 12-week-old mice as described 1 and cultured in RMPI-1640 medium supplemented with 10% fetal bovine serum (FBS), 2 mM L-glutamine, and 100 U/mL penicillin-streptomycin and mouse recombinant M-CSF ([…], Peprotech). For experiments, cells were seeded at concentration 10^6 cells/mL in tissue culture plates of various formats. The cells were treated with DI (250 μM (unless stated otherwise), cat #592498, Sigma), DMF (50 μM (unless stated otherwise), cat #242926, Sigma), 3-(ethoxycarbonyl)but-3-enoic acid (3MI, 5 μM, Aris Pharmaceuticals Inc.), 4-ethoxy-2-methylene-4-oxobutanoic acid (MI, Aris Pharmaceuticals Inc.) for 12 h and activated with lipopolysaccharide (LPS; 100 ng/mL; E. coli 0111:B4, Sigma) for 1 h or as indicated. In some experiments cells were stimulated with combination of LPS (20 ng/mL) and IFN-γ (50 ng/mL; Peprotech). In some experiments cells were treated with α-tocopherol (AT, 10 μM; Sigma), MitoTEMPO (MT, 500 μM; Sigma), N-acetylcysteine (NAC, 1 mM, Sigma), ethylester of GSH (EtGSH; 1 mM, Santa Cruz) or buthionene sulfoximine (BSO, 500 μM, Sigma) alone or in combination with DI for 12 h. In some experiments BMDMs were treated with DI for 12 h and bafilomycin A (BafA, 100 nM, Sigma) or MG132 (10 μM, Selleckchem) were added 30 min before subsequent LPS stimulation.
Cells were lysed in RIPA Lysis Buffer System (Santa Cruz) and heat-denatured at 95° C. for 5 min in reducing sample buffer (BioRad). Proteins were separated on 4%-20% polyacrylamide gradient gels (BioRad) and transferred onto 0.45 μm pore size PVDF membranes (Millipore). Non-specific binding was blocked with 5% skim milk (or 5% BSA when phospho-proteins were analyzed), and membranes were probed with primary antibodies specific to Nrf2 (#12721), HO-1 (#70081), IκBζ (mouse specific, #93726), IκBζ(#9244), ATF3 (#D2Y5W), IRAK1 (#4504; sensitivity of IRAK1 detection diminishes upon IRAK1 K63 ubiquitination), phospho-IKK (Ser176/180, #2697), p62/SQSTM1 (#5114), phospho-eIF2α (Ser51, #9721), eIF2α (#5324) from Cell Signaling; GAPDH (sc-25778), IκBα (sc-1643), ATF3 (sc-188), SDHA (sc-166909) from Santa Cruz; NQO1 (ab28947) from Abeam, followed by incubation with anti-rabbit-HRP (1:10,000; sc-2030) or anti-mouse-HRP (1:10,000; sc-2031) from Santa Cruz and Clarity western ECL substrate (Bio-Rad). Membranes were exposed to X-Ray films (Research Products International Corp.) and developed using SRX-101A film processor (Konica Minolta). GAPDH run on the same blot was used as loading control. After scanning of original films image brightness of some blots was adjusted and bands were cropped using ImageJ. Densitometry was performed using ImageJ.

Nfkbiz mRNA = assay: Nfkbiz (Ikb-ζ) mRNA expression in BMDMs (qPCR); type: cell-based, mouse; conditions: DI 12 h, then LPS
Procedure: as §1, with “In some experiments BMDMs were treated with DI for 12 h and bafilomycin A (BafA, 100 nM, Sigma) or MG132 (10 μM, Selleckchem) were added 30 min before subsequent LPS stimulation.” left out
RNA from cultured cells was isolated using a Total RNA I kit (OMEGA). […] Threshold cycle (CT) values for each sample were determined by automated threshold analysis. […]

[1] = system: IκBζ target genes (Defb4, S100a7a, Lcn2, S100a9); assay: IκBζ target gene expression in IL-17A-stimulated human keratinocytes (qPCR); type: cell-based; conditions: DI 12 h
Procedure: RNA from cultured cells was isolated using a Total RNA I kit (OMEGA). RNA from mouse ear skin was extracted using RNAeasy mini kit (Qiagen) after tissue disruption with sterile zirconium beads on a MagNA Lyser (Roche). Isolated RNA was reverse transcribed using AffinityScript Multi-Temp reverse transcriptase (Agilent Technologies) according to the manufacturer's protocol. Reactions were performed in 96-well plates using a SYBR Green PCR Master mix (Thermo Fisher Scientific) using a LightCycler® 96 or LightCycler® 480 (Roche Diagnostics). All assays were performed at least in duplicates, and reaction mixtures in 20 μL volumes (96-plate) or 10 μL volumes (384-plate) were processed under the following cycling conditions: initial 10 min denaturation at 95° C., followed by 40 cycles at 95° C. for 10 s, 60° C. for 1 min. Threshold cycle (CT) values for each sample were determined by automated threshold analysis. Expression levels of all mRNAs were normalized to reference gene Actb in BMDMs or to Rpl19 in mouse keratinocytes and tissue samples; to ACTB in human blood monocytes or RPLP0 in human keratinocytes. The relative increase in the expression level of a gene was normalized to the level of expression in unstimulated control cells in each experiment. IκBζ-dependent genes selected for analysis in macrophages were previously published. […]

[2] = system: LY1 and LY7 (GCB) cell lines; assay: DLBCL cell viability, resazurin assay, GCB subtype; type: cell-based; conditions: LY1 and LY7, 4 days, refreshed daily; DI 125-250 μM

In the case of C=C(CC(=O)OC)C(=O)OC [DI, dimethyl itaconate], the LPS-induced cytokine production (human CD14+ monocytes) is reported as “inhibition of cytokine production”, the “IκBζ protein levels upon DI treatment in Atf3−/− cells” value (IκBζ; Atf3−/− BMDMs, DI, LPS) is reported as “restored IκBζ protein levels” and the “LPS-induced Ikb-ζ induction, protein level” value (IκBζ; BMDMs treated with compound 12 h, then LPS 100 ng/ml) is reported as “almost complete inhibition; also recorded: completely abolished; also recorded: inhibited IκBζ induction”. The “effect on IκBζ/IL-6 in combination with BSO” value (IκBζ; BMDMs, compound plus BSO 500 μM, LPS) was “enhanced the inhibitory effect”, the “DI inhibition of Ikb-ζ induction in Nrf2-deficient cells” value (IκBζ; Nrf2 KO BMDMs, DI 250 μM 12 h, LPS) was “did not affect inhibition of Ikb-ζ induction; also recorded: did not alleviate” and the “IκBζ inhibition by DI in p62/SQSTM1- or HO-1-lacking macrophages” value (IκBζ; macrophages genetically lacking p62/SQSTM1 or HO-1) was “did not rescue IκBζ inhibition by DI”. For the same compound, the “Ikb-ζ (Nfkbiz) mRNA level” value (Nfkbiz mRNA) was “only moderate effect; also recorded: not changed”, the “expression of IL-17A signature / IκBζ target genes” value [1] was “also inhibited; also recorded: downregulated” and the “growth / toxicity, GCB DLBCL” value [2] was “not GCB cells”.

Source: US20200375929A1, “METHODS AND COMPOSITIONS FOR THE TREATMENT OF DISEASES ASSOCIATED WITH CANCER, INFLAMMATION, OR IMMUNE RESPONSE” (Washington University, priority 2017, published 2020)
